Laboratory results: ChEMBL document CHEMBL1137802, “Specific antioxidant activity of caffeoyl derivatives and other natural phenolic compounds: LDL protection against oxidation and decrease in the proinflammatory lysophosphatidylcholine production” (J Nat Prod, 2001)

Key:
Assay type in all cases: functional, cell-free
[1] = Antioxidant activity against Cu2+-induced lipid peroxidation in human plasma LDL assessed as maximal compound concentration at 10 umol/L preincubated for 1 hr before Cu2+ challenge measured after 180 mins relative to compound present at 0 min
[2] = Antioxidant activity against Cu2+-induced lipid peroxidation in human plasma LDL assessed as conjugated diene formation at 10 umol/L preincubated for 1 hr before Cu2+ challenge measured after 180 mins
[3] = Antioxidant activity against Cu2+-induced lipid peroxidation in human plasma LDL assessed as conjugated diene formation preincubated for 1 hr before Cu2+ challenge
[4] = Antioxidant activity against Cu2+-induced lipid peroxidation in human plasma LDL assessed as maximal compound concentration at 20 umol/L preincubated for 1 hr before Cu2+ challenge measured after 270 mins relative to compound present at 0 min
[5] = Antioxidant activity against Cu2+-induced lipid peroxidation in human plasma LDL assessed as conjugated diene formation at 20 umol/L preincubated for 1 hr before Cu2+ challenge measured after 90 mins
[6] = Antioxidant activity against Cu2+-induced lipid peroxidation in human plasma LDL assessed as lysophosphatidylcholine formation at 5 umol/L preincubated for 1 hr before Cu2+ challenge measured after 270 mins
[7] = Antioxidant activity against Cu2+-induced lipid peroxidation in human plasma LDL assessed as vitamin E consumption at 5 umol/L preincubated for 1 hr before Cu2+ challenge measured after 180 mins
[8] = Antioxidant activity against Cu2+-induced lipid peroxidation in human plasma LDL assessed as maximal compound concentration at 5 umol/L preincubated for 1 hr before Cu2+ challenge measured after 210 mins relative to compound present at 0 min

CC(C)(Sc1cc(C(C)(C)C)c(O)c(C(C)(C)C)c1)Sc1cc(C(C)(C)C)c(O)c(C(C)(C)C)c1
Activity [1]: 31.2%
Activity [2]: 77.3%
Activity [3]: Dose-dependent effect
Activity [4]: 34.6%
Activity [5]: 0.7%
Activity [6]: 26.1%
Activity [7]: 0%
Activity [8]: 36.8%
